# According to ChEMBL document CHEMBL1143939, “Binding effect and design of a competitive inhibitory peptide for HMG-CoA reductase through modeling of an active peptide backbone” (Bioorg Med Chem, 2008):
# Active and inactive are the calls of the source. No cut-off for these calls is given here. Non-standard residues stand in square brackets, D forms with d. Residues, ends and D or L forms follow the SMILES beside them. Phe(4-F) = N[C@@H](Cc1ccc(F)cc1)C(=O)O
# Target: T1, 3-hydroxy-3-methylglutaryl-coenzyme A reductase (Mesocricetus auratus) (UniProt P09610)
# T1 sequence (whole entry): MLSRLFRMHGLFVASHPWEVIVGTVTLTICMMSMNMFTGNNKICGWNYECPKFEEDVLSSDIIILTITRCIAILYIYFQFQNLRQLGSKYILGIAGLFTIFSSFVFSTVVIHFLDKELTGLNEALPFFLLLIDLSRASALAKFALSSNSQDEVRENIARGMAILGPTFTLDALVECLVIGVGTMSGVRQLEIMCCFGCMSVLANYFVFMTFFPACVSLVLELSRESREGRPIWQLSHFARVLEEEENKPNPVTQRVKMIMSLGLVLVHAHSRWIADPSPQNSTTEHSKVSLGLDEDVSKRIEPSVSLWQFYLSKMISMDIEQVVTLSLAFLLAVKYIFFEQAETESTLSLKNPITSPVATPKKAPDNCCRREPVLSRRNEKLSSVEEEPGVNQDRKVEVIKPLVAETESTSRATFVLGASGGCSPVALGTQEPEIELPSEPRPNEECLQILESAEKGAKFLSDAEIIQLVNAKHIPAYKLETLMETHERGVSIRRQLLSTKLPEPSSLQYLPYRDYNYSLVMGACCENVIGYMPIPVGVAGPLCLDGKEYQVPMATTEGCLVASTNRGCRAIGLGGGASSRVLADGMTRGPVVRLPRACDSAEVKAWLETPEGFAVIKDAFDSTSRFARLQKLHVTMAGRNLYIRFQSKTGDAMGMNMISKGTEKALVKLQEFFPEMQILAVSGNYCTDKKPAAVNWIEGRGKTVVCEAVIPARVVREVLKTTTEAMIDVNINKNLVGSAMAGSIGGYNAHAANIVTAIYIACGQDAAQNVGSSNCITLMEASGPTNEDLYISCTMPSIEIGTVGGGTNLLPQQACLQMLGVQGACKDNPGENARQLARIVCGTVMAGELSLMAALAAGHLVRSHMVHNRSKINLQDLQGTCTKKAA
# Experiment: (§1) Inhibition of Syrian hamster HMGR
row,Activity,Compound
1,inactive,CC(C)[C@H](NC(=O)CN)C(=O)N[C@@H](C)C(=O)N[C@@H](CCC(=O)O)C(=O)O (H-GVAE-OH)
2,inactive,H-GGPTGG-OH

# Target: T2, 3-hydroxy-3-methylglutaryl-coenzyme A reductase (Mesocricetus auratus, UniProt P09610)
# T2 sequence (P09610 whole entry): T1 sequence (whole entry)
# Experiment: as §1
row,Compound,IC50
1,CC(C)[C@H](NC(=O)[C@@H](N)Cc1ccccc1)C(=O)N[C@@H](C)C(=O)N[C@@H](CCC(=O)O)C(=O)O (H-FVAE-OH),43.8 µM
2,CC[C@H](C)[C@H](N)C(=O)N[C@@H](C)C(=O)N[C@H](C(=O)N[C@@H](CCC(=O)O)C(=O)O)C(C)C (H-IAVE-OH),75.2 µM
3,CC[C@H](C)[C@H](N)C(=O)N[C@@H](C)C(=O)N[C@H](C(=O)N1CCC[C@H]1C(=O)O)C(C)C (H-IAVP-OH),97.1 µM
4,CC[C@H](C)[C@H](N)C(=O)N[C@H](C(=O)N[C@@H](C)C(=O)N[C@@H](CCC(=O)O)C(=O)O)C(C)C (H-IVAE-OH),44.1 µM
5,CC(C)C[C@H](N)C(=O)N1CCC[C@H]1C(=O)N[C@@H](Cc1ccc(O)cc1)C(=O)N1CCC[C@H]1C(=O)O (H-LPYP-OH),485 µM
6,CC(C)[C@H](NC(=O)[C@H](C)NC(=O)[C@@H](N)Cc1ccc(O)cc1)C(=O)N[C@@H](CCC(=O)O)C(=O)O (H-YAVE-OH),52.6 µM
7,CC(C)[C@H](NC(=O)[C@@H](N)Cc1ccc(O)cc1)C(=O)N[C@@H](C)C(=O)N[C@@H](CCC(=O)O)C(=O)O (H-YVAE-OH),41.8 µM
8,H-IAVPGEVA-OH,152 µM

# Now from value to compound:
row,IC50,Compound
1,3.8 µM,CC(C)[C@H](NC(=O)[C@@H](N)Cc1ccc(F)cc1)C(=O)N[C@@H](C)C(=O)N[C@@H](CCC(=O)O)C(=O)O (H-[Phe(4-F)]VAE-OH)
2,1.5 µM,H-GFPDGG-OH
3,1.7 µM,H-GFPEGG-OH
4,16.9 µM,H-GFPTGG-OH
5,22.3 µM,H-GLPDGG-OH
6,27.2 µM,H-GLPEGG-OH
7,19.4 µM,H-GLPTGG-OH
